Experiment: Autohydrolytic cascade reaction
Assay type: physicochemical
Details: EDTA at 10–200 μM; Fig. S9E

For `O=C(O)CN(CCN(CC(=O)O)CC(=O)O)CC(=O)O` [EDTA], the “effect on the ACR” value was “inhibitory effect”.
